Experimental data: patent US9963467B2, “Boronic acid derivatives and therapeutic uses thereof” (Rempex Pharmaceuticals, Inc., priority 2014, dated 2018)

How the values were obtained:
[1] = target: KPC-2 (Klebsiella pneumoniae, UniProt Q9F663); assay: Ki, nitrocefin cleavage by purified enzyme, KPC-2; assay type: biochemical; settings: nitrocefin reporter substrate; read-out: Ki (KPC-2, NCF)
Procedure: (§1) Purified enzymes were mixed with various concentrations of inhibitors in reaction buffer and incubated for 10 min at room temperature. Nitrocefin was added and substrate cleavage profiles were recorded at 490 nm every 10 sec for 10 min.

[2] = target: CTX-M-14 (Escherichia coli, UniProt Q9L5C7); assay: Ki, nitrocefin cleavage by purified enzyme, CTX-M-14; assay type: biochemical; settings: nitrocefin reporter substrate; read-out: Ki (CTX-M-14, NCF)
Procedure: as §1

[3] = tested on: KP1009 (CTX-M-15); assay: Tigemonam potentiation (MPC@4), KP1009; assay type: cell-based; settings: BLI with tigemonam at 4 μg/mL
[4] = tested on: ec308 (SHV-5); assay: Tigemonam potentiation (MPC@4), ec308; assay type: cell-based
[5] = target: P99 (Enterobacter cloacae, UniProt P05364); assay: Ki, nitrocefin cleavage by purified enzyme, P99; assay type: biochemical; settings: nitrocefin reporter substrate; read-out: Ki (P99, NCF)
Procedure: as §1

[6] = tested on: ECL1002; assay: Aztreonam potentiation (MPC@4), ECL1002; assay type: cell-based; settings: BLI with aztreonam at 4 μg/mL
[7] = target: SHV-12 (Klebsiella pneumoniae, UniProt P0AD64, E235K/G234S/L31Q); assay: Ki, nitrocefin cleavage by purified enzyme, SHV-12; assay type: biochemical; settings: nitrocefin reporter substrate; read-out: Ki (SHV-12, NCF)
Procedure: as §1

[8] = tested on: KP1004 (KPC-2); assay: Biapenem potentiation (MPC@1), KP1004; settings: BLI with biapenem at 1 μg/mL
[9] = tested on: EC1010 (CMY-6); assay: organism not typed; assay type: cell-based
[10] = tested on: ec302 (TEM-10); assay: Tigemonam potentiation (MPC@4), ec302; assay type: cell-based
[11] = tested on: KP1010 (SHV-12); assay: Tigemonam potentiation (MPC@4), KP1010; assay type: cell-based
[12] = tested on: KP1005 (CTX-M-14); assay: Tigemonam potentiation (MPC@4), KP1005; assay type: cell-based; settings: BLI with tigemonam at 4 μg/mL
[13] = tested on: EC1010 (CMY-6); assay: Tigemonam potentiation (MPC@4), EC1010; assay type: cell-based; settings: BLI with tigemonam at 4 μg/mL
[14] = tested on: KP1086 (OXA-48); assay: Biapenem potentiation (MPC@1), KP1086; settings: BLI with biapenem at 1 μg/mL
[15] = Monomer content of pH adjusted aqueous solutions (LC-UV); assay type: physicochemical; settings: 1 mg/mL aqueous salt solution, pH adjusted to 7.6 to 8, LC-UV
Procedure: Boronic acid containing compounds are known to undergo oligomerization. The presence of oligomers can greatly complicate drug development, as they represent new chemical species whose content must be controlled and qualified by testing in toxoicology studies. The monomer content of compounds was evaluated by adjusting aqueous solutions to physiological pH at various concentrations. The monomer content of pH adjusted solutions was measured using LC-UV. Test compounds were weighed out into a 1.5 mL Eppendorf tube. A solution of water was prepared in 1.00 mg/mL, 10.0 mg/mL or 100 mg/mL concentrations of the compound based on active fraction. A volume 20 uL was subtracted to allow room for addition of acid or base to adjust pH. The solution pH was measured. The pH was then adjusted through addition of acid or base as necessary until the reading was in the 7.6 to 8 range. A final pH measurement was made after ensuring all the compound was in solution. The solution was injected onto LC-UV in 0.1 uL to 5 uL volume within less than half an hour after the time the sample was prepared. Elution was done using 0.1% TFA in water for mobile phase A and 0.085% TFA in methanol for mobile phase B on an Excel ACE 5 Super C18 2.1×100 mm column at 0.6 ml/min flow rate with 9 min gradient, 3.9 minute hold at 90% B and 18 minute run time. The absorption was measured at 220, 254 and 300 nm with a 4 nm bandwidth.

[16] = tested on: ec302 (TEM-10); assay: Aztreonam potentiation (MPC@4), ec302; assay type: cell-based; settings: BLI with aztreonam at 4 μg/mL
[17] = tested on: ECL1002; assay: Tigemonam potentiation (MPC@4), ECL1002; assay type: cell-based; settings: BLI with tigemonam at 4 μg/mL
[18] = target: OXA-48 (Klebsiella pneumoniae, UniProt Q6XEC0); assay: Ki, nitrocefin cleavage by purified enzyme, OXA-48; assay type: biochemical; settings: nitrocefin reporter substrate; read-out: Ki (OXA-48, NCF)
Procedure: as §1

[19] = Serum stability of prodrugs, human serum; assay type: in vitro ADME; settings: theoretical initial conc. 20 ug/mL; for Measured Initial Conc. in Serum: 37 degrees; for Conc. at t = 1 hr: prodrug
[20] = Serum stability of prodrugs, rat serum; assay type: in vitro ADME; settings: theoretical initial conc. 20 ug/mL; for Measured Initial Conc. in Serum: 37 degrees; for Conc. at t = 1 hr / Conc. at t = 3 hr: prodrug
Procedure: (§2) Prodrug strategy is one of the ways to achieve or increase oral bioavailability for therapeutic drugs. […] After a prodrug molecule is absorbed into systemic circulation, it should be hydrolyzed in the blood in order to release the active form. Hydrolysis of several prodrugs by rat and human serum were evaluated.
(§3) For all stability experiments the test compounds were treated with rat or human serum in Eppendorf tubes. Typically, 992 μl of serum was prewarmed at 37 degrees for 2 minutes and then 8 μl of a compound (at 5 mg/ml, 125×) was added to it to get a final concentration of […] and immediately mixed. Alternatively, serum stability might be tested at 1 mg/ml. […] After vortexing for 30 seconds, the tube was centrifuged in a microcentrifuge for 10 minutes at 15K rpm. Next, 100 μl of the supernatant was combined with 600 μl of water and injected on LC-MS using 0.1% formic acid in water for mobile phase A and 0.1% formic acid in methanol for mobile phase B on an ACE 5 C18 2.1×100 mm column with a 10 μL injection. The flow rate and gradient were adjusted as needed to give the desired resolution and run time. The pH of the mobile phase was adjusted if needed to improve the chromatography.
(§4) The time course of both the disappearance of a prodrug and the appearance of the active form of that prodrug is presented in Table 6 and Table 7. The active metabolites for all of the listed prodrugs are corresponding parent drugs

[21] = Serum stability of prodrugs, human serum; assay type: in vitro ADME; settings: human serum; prodrug; theoretical initial conc. 20 ug/mL
Procedure: as §2, §3, §4

OXA-48, sequence (Q6XEC0 23-265, looked up, species assumed): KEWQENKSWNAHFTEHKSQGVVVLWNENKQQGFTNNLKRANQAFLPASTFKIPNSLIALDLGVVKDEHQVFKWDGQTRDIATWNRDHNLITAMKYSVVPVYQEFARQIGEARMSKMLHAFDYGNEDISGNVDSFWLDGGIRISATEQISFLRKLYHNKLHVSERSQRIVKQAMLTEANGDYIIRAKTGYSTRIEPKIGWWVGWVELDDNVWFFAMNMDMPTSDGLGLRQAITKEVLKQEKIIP
SHV-12, sequence (P0AD64 22-286 L31Q/G234S/E235K): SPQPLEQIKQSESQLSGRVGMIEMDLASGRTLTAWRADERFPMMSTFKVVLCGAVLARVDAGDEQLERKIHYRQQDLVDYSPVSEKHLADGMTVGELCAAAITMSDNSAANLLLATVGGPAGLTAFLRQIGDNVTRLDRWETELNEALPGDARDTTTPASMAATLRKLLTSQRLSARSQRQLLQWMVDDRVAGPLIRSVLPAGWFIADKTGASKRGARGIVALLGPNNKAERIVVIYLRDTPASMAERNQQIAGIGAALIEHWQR
P99, sequence (P05364 21-381): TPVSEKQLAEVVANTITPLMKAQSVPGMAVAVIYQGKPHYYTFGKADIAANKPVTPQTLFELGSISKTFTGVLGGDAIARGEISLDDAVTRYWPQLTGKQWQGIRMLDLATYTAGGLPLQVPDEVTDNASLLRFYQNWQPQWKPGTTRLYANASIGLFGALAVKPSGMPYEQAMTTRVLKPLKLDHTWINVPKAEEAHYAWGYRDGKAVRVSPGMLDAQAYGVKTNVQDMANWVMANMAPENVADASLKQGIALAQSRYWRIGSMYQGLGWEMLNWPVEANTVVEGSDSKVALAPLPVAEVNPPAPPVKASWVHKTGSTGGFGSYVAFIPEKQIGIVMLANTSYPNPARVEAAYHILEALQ
KPC-2, sequence (Q9F663 25-293, looked up, species assumed): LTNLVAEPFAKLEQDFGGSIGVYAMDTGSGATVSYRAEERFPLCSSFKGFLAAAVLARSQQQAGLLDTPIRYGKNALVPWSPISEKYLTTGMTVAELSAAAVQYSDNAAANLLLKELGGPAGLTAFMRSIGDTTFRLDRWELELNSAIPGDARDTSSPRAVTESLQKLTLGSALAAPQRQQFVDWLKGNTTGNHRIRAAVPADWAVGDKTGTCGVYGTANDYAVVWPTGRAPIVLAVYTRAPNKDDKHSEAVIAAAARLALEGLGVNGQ
CTX-M-14, sequence (Q9L5C7 29-291): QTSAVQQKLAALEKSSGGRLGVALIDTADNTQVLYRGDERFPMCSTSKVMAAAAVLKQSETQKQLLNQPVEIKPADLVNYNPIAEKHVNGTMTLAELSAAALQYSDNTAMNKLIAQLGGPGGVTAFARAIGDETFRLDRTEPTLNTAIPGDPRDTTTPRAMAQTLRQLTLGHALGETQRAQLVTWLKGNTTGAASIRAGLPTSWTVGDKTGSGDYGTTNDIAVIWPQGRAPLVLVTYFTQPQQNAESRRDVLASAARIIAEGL

SMILES	Measured Initial Conc. in Serum [19]	Conc. at t = 1 hr [19]	Measured Initial Conc. in Serum [20]	Conc. at t = 1 hr [20]	Conc. at t = 3 hr [20]	Conc. at t = 3 hr [21]	further results
CSCC(=O)N[C@H]1Cc2ccc(SC)c(C(=O)O)c2OB1O [Compound 10, (R)-2-hydroxy-7-(methylthio)-3-(2-(methylthio)acetamido)-3,4-dihydro-2H-benzo[e][1,2]oxaborinine-8-carboxylic acid]							Ki [1]: > 10 nM; Ki [2]: < 1 nM; TIG MPC4 CTX-M-15 KP1009 [3]: X (MIC of less than 1 μg/mL); TIG MPC4 SHV-5 ec308 [4]: X (key: X: MIC of less than 1 μg/mL; Y: MIC of 1 μg/mL to 10 μg/mL; Z: MIC of greater than 10 μg/mL); Ki [5]: > 10 nM; AZT MPC4 ECL1002 [6]: Y (MIC of 1 μg/mL to 10 μg/mL); Ki [7]: < 1 nM; BPM MPC1 KP1004 KPC-2 [8]: X (MIC of less than 1 μg/mL); AZT MPC4 CMY-6 EC1010 [9]: Y (key: X: MIC of less than 1 ng/mL; Y: MIC of 1 μg/mL to 10 μg/mL; Z: MIC of greater than 10 μg/mL); TIG MPC4 TEM-10 ec302 [10]: Y (key: X: MIC of less than 1 ng/mL; Y: MIC of 1 μg/mL to 10 μg/mL; Z: MIC of greater than 10 μg/mL); TIG MPC4 SHV-12 KP1010 [11]: X (key: X: MIC of less than 1 μg/mL; Y: MIC of 1 μg/mL to 10 μg/mL; Z: MIC of greater than 10 μg/mL); TIG MPC4 CTX-M-14 KP1005 [12]: Y (MIC of 1 μg/mL to 10 μg/mL); TIG MPC4 CMY-6 EC1010 [13]: X (MIC of less than 1 μg/mL); BPM MPC1 OXA-48 KP1086 [14]: Z (MIC of greater than 10 μg/mL); % Monomer in 1 mg/mL salt solution [15]: 87.5%; AZT MPC4 TEM-10 ec302 [16]: Y (MIC of 1 μg/mL to 10 μg/mL); TIG MPC4 ECL1002 [17]: X (MIC of less than 1 μg/mL); Ki [18]: 1 to 10 nM
CSCC(=O)N[C@H]1Cc2ccc(F)c(C(=O)OCOC(=O)C(C)(C)C)c2OB1O [Compound 18, (R)-pivaloyloxymethyl 7-fluoro-2-hydroxy-3-(2-(methylthio)acetamido)-3,4-dihydro-2H-benzo[e][1,2]oxaborinine-8-carboxylate]	16.3 µg/mL	11600 ng/mL	14.6 µg/mL	9390 ng/mL	3290 ng/mL	6270 ng/mL	
CCOC(=O)OCOC(=O)c1c(F)ccc2c1OB(O)[C@@H](NC(=O)CSC)C2 [Compound 19, (R)-(ethoxycarbonyloxy)methyl 7-fluoro-2-hydroxy-3-(2-(methylthio)acetamido)-3,4-dihydro-2H-benzo[e][1,2]oxaborinine-8-carboxylate]	20.3 µg/mL	6110 ng/mL	17.4 µg/mL	0 ng/mL	0 ng/mL	1170 ng/mL	
COc1ccc2c(c1C(=O)OCOC(=O)OC(C)C)OB(O)[C@@H](NC(=O)CSC)C2 [Compound 40, isopropoxycarbonyloxymethyl(3R)-2-hydroxy-7-methoxy-3-[(2-methylsulfanylacetyl)amino]-3,4-dihydro-1,2-benzoxaborinine-8-carboxylate]	24.8 µg/mL	23600 ng/mL	25.9 µg/mL	2710 ng/mL	740 ng/mL	19000 ng/mL	
CCOC(=O)OCOC(=O)c1c(OC)ccc2c1OB(O)[C@@H](NC(=O)CSC)C2 [Compound 41, ethoxycarbonyloxymethyl(3R)-2-hydroxy-7-methoxy-3-[(2-methylsulfanylacetyl)amino]-3,4-dihydro-1,2-benzoxaborinine-8-carboxylate]	24.4 µg/mL	20800 ng/mL	20.6 µg/mL	400 ng/mL	0 ng/mL	20900 ng/mL	
COc1ccc2c(c1C(=O)OCOC(=O)C(C)C)OB(O)[C@@H](NC(=O)CSC)C2 [Compound 42, 2-methylpropanoyloxymethyl(3R)-2-hydroxy-7-methoxy-3-[(2-methylsulfanylacetyl)amino]-3,4-dihydro-1,2-benzoxaborinine-8-carboxylate]	23.4 µg/mL	19500 ng/mL	24.2 µg/mL	14100 ng/mL	5580 ng/mL	16500 ng/mL	

The next lines start with results.

Measured Initial Conc. in Serum [19]	Conc. at t = 1 hr [19]	Measured Initial Conc. in Serum [20]	Conc. at t = 1 hr [20]	Conc. at t = 3 hr [20]	Conc. at t = 3 hr [21]	SMILES	further results
18.9 µg/mL	8940 ng/mL	18.0 µg/mL	11700 ng/mL	4580 ng/mL	3160 ng/mL	CSCC(=O)N[C@H]1Cc2ccc(F)c(C(=O)OCOC(=O)c3ccccc3)c2OB1O [Compound 43, benzoyloxymethyl(3R)-7-fluoro-2-hydroxy-3-[(2-methylsulfanylacetyl)amino]-3,4-dihydro-1,2-benzoxaborinine-8-carboxylate]	
18.6 µg/mL	18100 ng/mL	18.4 µg/mL	16000 ng/mL	5210 ng/mL	12500 ng/mL	CSCC(=O)N[C@H]1Cc2ccc(SC)c(C(=O)OCOC(=O)C(C)C)c2OB1O [Compound 44, 2-methylpropanoyloxymethyl(3R)-2-hydroxy-7-methylsulfanyl-3-[(2-methylsulfanylacetyl)amino]-3,4-dihydro-1,2-benzoxaborinine-8-carboxylate]	
18.4 µg/mL	4830 ng/mL	18.6 µg/mL	8850 ng/mL	420 ng/mL	580 ng/mL	CSCC(=O)N[C@H]1Cc2cc(F)c(F)c(C(=O)OCOC(=O)C(C)C)c2OB1O [Compound 45, 2-methylpropanoyloxymethyl(3R)-6,7-difluoro-2-hydroxy-3-[(2-methylsulfanylacetyl)amino]-3,4-dihydro-1,2-benzoxaborinine-8-carboxylate]	
19.1 µg/mL	6220 ng/mL	18.7 µg/mL	8290 ng/mL	410 ng/mL	1010 ng/mL	CSCC(=O)N[C@H]1Cc2cc(Cl)c(F)c(C(=O)OCOC(=O)C(C)C)c2OB1O [Compound 46, 2-methylpropanoyloxymethyl(3R)-6-chloro-7-fluoro-2-hydroxy-3-[(2-methylsulfanylacetyl)amino]-3,4-dihydro-1,2-benzoxaborinine-8-carboxylate]	
